Source: ChEMBL document CHEMBL4765403, “Augmentation of the antitumor effects of PARP inhibitors in triple-negative breast cancer via degradation by hydrophobic tagging modulation” (Eur J Med Chem, 2020)
pIC50: −log10 of the molar value. Calls of active or inactive are those of the source. The rule behind the calls is not given here.

Columns and labels:
[1] = target: Poly [ADP-ribose] polymerase 1 (Homo sapiens) (UniProt P09874); test: Induction of PARP1 degradation in triple-negative human MDA-MB-231 cells assessed as fold change in PARP1 protein expression at 10 uM incubated for 48 hrs by Western blot analysis relative to control; format: cell-based
Poly [ADP-ribose] polymerase 1 (Homo sapiens), sequence (P09874 whole entry): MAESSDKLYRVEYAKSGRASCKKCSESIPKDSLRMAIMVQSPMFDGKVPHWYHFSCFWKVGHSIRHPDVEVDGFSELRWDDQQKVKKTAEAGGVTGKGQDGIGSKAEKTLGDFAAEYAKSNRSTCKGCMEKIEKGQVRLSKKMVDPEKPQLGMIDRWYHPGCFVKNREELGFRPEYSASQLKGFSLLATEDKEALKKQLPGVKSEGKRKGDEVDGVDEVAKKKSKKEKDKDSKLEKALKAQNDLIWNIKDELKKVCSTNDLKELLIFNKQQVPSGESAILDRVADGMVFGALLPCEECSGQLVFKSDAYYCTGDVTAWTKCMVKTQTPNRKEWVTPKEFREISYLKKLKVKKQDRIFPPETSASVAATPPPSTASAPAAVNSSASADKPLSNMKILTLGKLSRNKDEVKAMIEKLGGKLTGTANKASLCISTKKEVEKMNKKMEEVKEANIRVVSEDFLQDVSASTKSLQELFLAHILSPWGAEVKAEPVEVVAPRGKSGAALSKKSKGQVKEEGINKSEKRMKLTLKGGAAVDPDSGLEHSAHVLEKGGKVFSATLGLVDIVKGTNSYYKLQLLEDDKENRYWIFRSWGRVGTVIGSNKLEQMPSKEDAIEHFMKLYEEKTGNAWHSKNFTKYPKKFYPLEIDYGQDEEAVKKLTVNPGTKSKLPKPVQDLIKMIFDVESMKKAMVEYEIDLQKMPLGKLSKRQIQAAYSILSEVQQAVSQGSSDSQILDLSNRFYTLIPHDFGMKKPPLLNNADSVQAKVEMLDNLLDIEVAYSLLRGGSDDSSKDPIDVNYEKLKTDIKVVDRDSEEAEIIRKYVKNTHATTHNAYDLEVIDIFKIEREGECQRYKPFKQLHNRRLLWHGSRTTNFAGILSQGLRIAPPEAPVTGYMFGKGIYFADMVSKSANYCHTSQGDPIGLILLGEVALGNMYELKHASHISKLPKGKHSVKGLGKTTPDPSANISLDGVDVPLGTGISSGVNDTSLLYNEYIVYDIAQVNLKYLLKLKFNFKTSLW

[2] = target: Poly [ADP-ribose] polymerase 1 (Homo sapiens) (UniProt P09874); test: Induction of PARP1 degradation in triple-negative human MDA-MB-231 cells assessed as fold change in PARP1 protein expression at 2.5 uM incubated for 48 hrs by Western blot analysis relative to control; format: cell-based
[3] = target: Poly [ADP-ribose] polymerase 1 (Homo sapiens) (UniProt P09874); test: Induction of PARP1 degradation in triple negative human MDA-MB-231 cells assessed as fold change in PARP1 protein expression at 5 uM incubated for 48 hrs by Western blot analysis relative to control; format: cell-based
[4] = system: MDA-MB-231; test: Cytotoxicity against triple-negative human MDA-MB-231 cells assessed as reduction in cell viability measured after 48 hrs by CCK8 assay; format: functional, cell-based; settings: MDA-MB-231, 48 h
[5] = system: MDA-MB-231; test: Induction of endoplasmic reticulum stress in human MDA-MB-231 cells assessed as upregulation of XBP-1s protein expression at 5 uM incubated for 48 to 72 hrs by western blot analysis; format: functional, cell-based; settings: time 48-72 hrs
[6] = system: MDA-MB-231; test: Cytotoxicity against human MDA-MB-231 cells assessed as reduction in cell viability measured after 96 hrs by CCK8 assay; format: functional, cell-based; settings: MDA-MB-231, 96 h
[7] = system: MDA-MB-231; test: Induction of endoplasmic reticulum stress in human MDA-MB-231 cells assessed as upregulation of CHOP protein expression at 5 uM incubated for 48 to 72 hrs by western blot analysis; format: functional, cell-based; settings: time 48-72 hrs
[8] = system: MDA-MB-231; test: Induction of autophagy in human MDA-MB-231 cells assessed as upregulation of LC3B protein expression at 5 uM incubated for 48 to 72 hrs by western blot analysis; format: functional, cell-based; settings: time 48-72 hrs

Structure (SMILES) | fold change (FC) [1] | fold change (FC) [2] | fold change (FC) [3] | pIC50 [4] | Activity [5] | pIC50 [6] | Activity [7] | Activity [8]
O=C(NCCCCCCN1CCN(C(=O)c2cc(Cc3n[nH]c(=O)c4ccccc34)ccc2F)CC1)C(C1CCCCC1)C1CCCCC1 | 0.3 | 0.9 | 0.8 | < 4.30 | – | – | – | –
CC(C)Cc1ccc([C@H](C)C(=O)N2CCN(C(=O)c3cc(Cc4n[nH]c(=O)c5ccccc45)ccc3F)CC2)cc1 | 0.8 | 0.8 | 1 | – | – | – | – | –
O=C(c1cc(Cc2n[nH]c(=O)c3ccccc23)ccc1F)N1CCN(C(=O)C2CC2)CC1 [OLAPARIB] | – | – | – | – | inactive | 4.49 | inactive | inactive
O=C(CC1c2ccccc2-c2ccccc21)NCCCCCCN1CCN(C(=O)c2cc(Cc3n[nH]c(=O)c4ccccc34)ccc2F)CC1 | 0.4 | 0.5 | 0.5 | – | – | – | – | –
c1ccc2c(c1)Cc1ccccc1-2 [FLUORENE] | – | – | – | < 4.30 | – | – | – | –
O=C(CC12CC3CC(CC(C3)C1)C2)NCCCCN1CCN(C(=O)c2cc(Cc3n[nH]c(=O)c4ccccc34)ccc2F)CC1 | 1.1 | 1.1 | 1.2 | – | – | – | – | –
O=C(NCCCCCCN1CCN(C(=O)c2cc(Cc3n[nH]c(=O)c4ccccc34)ccc2F)CC1)C(c1ccccc1)c1ccccc1 | 1.3 | 1.4 | 1.5 | – | – | – | – | –
O=C(NCCN1CCN(C(=O)c2cc(Cc3n[nH]c(=O)c4ccccc34)ccc2F)CC1)C(C1CCCCC1)C1CCCCC1 | 0.9 | 0.9 | 0.9 | – | – | – | – | –
O=C(CC12CC3CC(CC(C3)C1)C2)NCCN1CCN(C(=O)c2cc(Cc3n[nH]c(=O)c4ccccc34)ccc2F)CC1 | 1.3 | 1.1 | 1.2 | – | – | – | – | –
O=C(c1cc(Cc2n[nH]c(=O)c3ccccc23)ccc1F)N1CCN(C(=O)C(C2CCCCC2)C2CCCCC2)CC1 | 0.7 | 0.6 | 0.7 | – | – | – | – | –
O=C(CC1c2ccccc2-c2ccccc21)NCCN1CCN(C(=O)c2cc(Cc3n[nH]c(=O)c4ccccc34)ccc2F)CC1 | 0.4 | 0.4 | 0.3 | 4.58 | – | – | – | –
O=C(NCCCCN1CCN(C(=O)c2cc(Cc3n[nH]c(=O)c4ccccc34)ccc2F)CC1)C(c1ccccc1)c1ccccc1 | 1.2 | 1.4 | 1.6 | – | – | – | – | –
CC(C)Cc1ccc([C@H](C)C(=O)NCCCCCCN2CCN(C(=O)c3cc(Cc4n[nH]c(=O)c5ccccc45)ccc3F)CC2)cc1 | 0.3 | 1.2 | 0.7 | 4.80 | – | – | – | –
CC(C)Cc1ccc([C@H](C)C(=O)NCCN2CCN(C(=O)c3cc(Cc4n[nH]c(=O)c5ccccc45)ccc3F)CC2)cc1 | 0.7 | 0.9 | 0.8 | – | – | – | – | –

Second part, led by results:

fold change (FC) [1] | fold change (FC) [2] | fold change (FC) [3] | Structure (SMILES) | pIC50 [4] | Activity [5] | pIC50 [6] | Activity [7] | Activity [8]
0.8 | 0.9 | 1.2 | O=C(CC12CC3CC(CC(C3)C1)C2)NCCCCCCN1CCN(C(=O)c2cc(Cc3n[nH]c(=O)c4ccccc34)ccc2F)CC1 | – | – | – | – | –
0.8 | 0.9 | 0.7 | O=C(CC12CC3CC(CC(C3)C1)C2)N1CCN(C(=O)c2cc(Cc3n[nH]c(=O)c4ccccc34)ccc2F)CC1 | – | – | – | – | –
1.2 | 1.1 | 0.8 | O=C(NCCCCN1CCN(C(=O)c2cc(Cc3n[nH]c(=O)c4ccccc34)ccc2F)CC1)C(C1CCCCC1)C1CCCCC1 | – | – | – | – | –
1.3 | 1.3 | 1.1 | O=C(NCCN1CCN(C(=O)c2cc(Cc3n[nH]c(=O)c4ccccc34)ccc2F)CC1)C(c1ccccc1)c1ccccc1 | – | – | – | – | –
1.1 | 1 | 1 | O=C(c1cc(Cc2n[nH]c(=O)c3ccccc23)ccc1F)N1CCN(C(=O)C(c2ccccc2)c2ccccc2)CC1 | – | – | – | – | –
1.7 | 0.9 | 1.2 | CC(C)Cc1ccc([C@H](C)C(=O)NCCCCN2CCN(C(=O)c3cc(Cc4n[nH]c(=O)c5ccccc45)ccc3F)CC2)cc1 | – | – | – | – | –
0.5 | 0.5 | 0.5 | O=C(CC1c2ccccc2-c2ccccc21)NCCCCN1CCN(C(=O)c2cc(Cc3n[nH]c(=O)c4ccccc34)ccc2F)CC1 | < 4.30 | – | – | – | –
